No end group written: not given here. *: point of attachment. For = O=C*

These results are taken from patent publication US20240226234A1, “WNT5A PEPTIDES FOR THE TREATMENT OF ACUTE M[…]” (W[…], priority 2021, published 2024).

Type in all cases: cell-based, human
One test relates to THP1 cells. The test can be described thus: Transwell chemotaxis assay toward CXCL12, THP1 cells. Particulars: THP1, Foxy-5 100 μM 72 h pretreatment, CXCL12 100 ng/mL, 24 h. Here is the method:
(§1) Leukemic cell lines, pretreated or not with Foxy-5 (72 hours of stimulation) were tested for chemotaxis in Transwell-based assays for Chemotaxis (6.5 mm diameter, 8 μm pore size; Corning). Polycarbonate membranes were incubated with poly-L-lysine (1 mg/mL) for 1 hour at 37° C. followed by saline buffer washing. Briefly, cells were collected, washed with media containing bovine serum albumin (0.1% BSA; Sigma), and then seeded at a density of 5×10^5 cells into the upper chamber of the transwell. The lower chamber was filled with media containing 0.5% BSA (negative control), media containing 10% FBS (positive control) and media 5 containing 0.5% BSA with CXCL12 (100 ng/ml; Peprotech) (Melo et al., 2014). Following 6 h or 24 h of incubation at 37° C., cells that migrated into the lower chamber were collected, centrifuged, resuspended in saline buffer and counted. The number of migrated cells was expressed as a percentage of the input, i.e., the cells number applied directly to the lower compartment in parallel wells. The migration of cells was normalized to 100%+/−standard deviation (SD) of triplicates (Favaro et al., 2013).
(§2) We investigated whether restoring of WNT5A could enable the modulation CXCL12-induced chemotaxis of leukemia cells. […]

Test [1] has as its system K562 cells. The test can be described thus: Cell cycle assay, K562 cells. Particulars: 72 h. As to the method:
(§3) A panel of human myeloid leukemia cell lines (HL60, K562, KG1a, THP1 and U937) and HS-5 mesenchymal stromal cells lineage were cultured in Roswell Park Memorial Institute medium-1640 (RPMI; Sigma) containing 10% Fetal Bovine Serum (Gibco), glutamine (2 mM; Sigma), penicillin (100 μg/mL; Sigma), streptomycin (100 μg/mL; Sigma), and amphotericin B (0.25 μg/mL; Gibco). The cells were maintained in a humidified atmosphere at 37° C. and 5% CO2 and the experiments were performed when they reached exponential growth. For the assays, cells were seeded on a 24-well plate and treated or not with Foxy-5 for 72 hours.
(§4) Cells treated with Foxy or with vehicle were collected and fixed, at least, 24 hours in 70% ethanol. DNA was stained with a buffer containing iodide propidium (20 μg/mL; Sigma) and RNase A (10 μg/mL; Sigma). Cell fluorescence was detected with a FACSCalibur flow cytometer (BD). The proportions of cells in the cell cycle phases were analyzed by Modifit (Verify Software House Inc), according to DNA distributions.
(§5) As we observed a reduction in the leukemic proliferation after Foxy-5 treatment, we also analyzed the cell cycle phases. Leukemia cell lines were treated for 72 hours with Foxy-5, at doses of 50 μM and 100 μM, or vehicle, stained with the Piper buffer containing RNAse and iodeto propidium and then analyzed by flow cytometry.

For the next test, the system named is KG1a cells. Briefly: ROS production by flow cytometry, KG1a cells. Particulars: 72 h; for ROS production (MFI): 2D culture on HS5 stromal cells; for ROS production (mean fluorescence intensity): monoculture. As to the method:
as §3
Cells treated with Foxy or with vehicle were collected and intracellular ROS generation was measured by flow cytometry following staining with DCFDA ([…]; Sigma). Acquisition of cells was performed on a FACScalibur flow cytometer (BD) and analysis was carried out using the FlowJo software.
Leukemia cell lines were treated for 72 h with Foxy-5, at doses of 50 and 100 μM, or vehicle, stained with DCFHA dye, and analyzed by flow cytometry.
(A flow cytometer gives signals particle by particle.)

For a further test, the system named is HL60 cells. The test can be described thus: Cell cycle assay, HL60 cells. Particulars: 72 h. As to the method:
as §3, §4, §5

Test [2] concerns K562 cells. The test can be described thus: Cell growth assay, K562 cells. Particulars: Foxy-5 100 μM, 72 h. As to the method: as §3
Cells treated with Foxy or with vehicle were collected and cell number was evaluated by manual counting in monoculture and by microscopy with Image J software analysis in 2D culture.
Next, we evaluated the proliferation rates since this process is modulated by ROS. We treated the cells with Foxy-5 (100 μM) or with vehicle (DMSO) during 72 hours, and then cell growth was analyzed by counting the cells in monoculture, manually, or by the Image J software analysis of the 2D cultures. […] Similar results were obtained in the 2D culture system using leukemia cells and HS-5 mesenchymal stromal cells.

A further test concerns PI3K and MAPK pathways. Briefly: Western blot of PI3K and MAPK pathway proteins, K562 cells. Particulars: K562, Foxy-5 50 μM or 100 μM, 72 h. Here is the method: Equal amounts of protein were resolved by sodium dodecyl sulphate-polyacrylamide gel electrophoresis and transferred onto nitrocellulose membranes (Millipore). Detection was carried out with the chemiluminescent substrate using an ECL Plus (GE-Healthcare). Monoclonal antibodies against P70S6K (sc-8418) and polyclonal antibodies against Actin (sc-1616), AKT1/2/3 (sc-8312), BAX (sc-493), BCL-XL (sc-8392), GAPDH (sc-32,233), p-AKT1/2/3 (sc-33,437) and p-P70S6K (sc-7984) were purchased from Santa Cruz Biotechnology. ERK1/2 ([pT185/Y187]; 44-680G) and ERK1/2 (44-654G) from Invitrogen. Quantitative blots were carried out using the UN-SCAN-IT densitometer software.
Based on the above results, the activity of proteins of PI3K and MAPK pathways were then investigated in a western blot. Briefly, U937 and K562 cells were seeded and treated with Foxy-5 (50 μM or 100 μM) or vehicle for 72 hours. Then, equal amounts of protein were used for total extracts followed by electrophoresis on 12% SDS polyacrylamide gels under reducing conditions, transferred to nitrocellulose membranes, blocked with 10% skimmed milk in TBS-0.1% Tween for 1 hour, stained with appropriate primary and secondary antibodies. The membranes were visualized with chemiluminescence using an ECL Plus (GE-Healthcare). Quantitative analyses of the optical intensities of the protein bands were determined with Un-Scan-It Gel 6.1 (Silk Scientific Inc.).
A general note: A western blot detects proteins with antibodies after separation by electrophoresis.

In test [3] the test system is K562 cells. The test can be described thus: Transwell chemotaxis assay toward CXCL12, K562 cells. Particulars: K562, Foxy-5 100 μM 72 h pretreatment, CXCL12 100 ng/mL, 24 h. As to the method: as §1, §2
In the next test the test system is U937 cells. Briefly: Transwell chemotaxis assay toward CXCL12, U937 cells. Particulars: U937, Foxy-5 100 μM 72 h pretreatment, CXCL12 100 ng/mL, 24 h. As to the method: as §1, §2

With “Foxy-5: Formylated hexapeptide fragment of WNT5A: MDGCEL (SEQ. ID. NO. 3) with methionine in position 1 as N-formyl methionine; WNT5A-mimicking compound (For-MDGCEL; listed as Homo sapiens)”, the “CXCL12-induced chemotaxis (migrated cells as percentage of the input, average)” value in the test with THP1 cells is on record as 11.17%; in the test with K562 cells [3], 1.52%; with U937 cells, 40.35%. Further, the “cells in G0/G1 cell cycle phase (average)” value with K562 cells [1] (K562, co-cultured with HS5 stromal cells, Foxy-5 50 μM) came to 65.32%; in the test on K562 cells [1] (K562, co-cultured with HS5 stromal cells, Foxy-5 100 μM), 83.52%; in the test with K562 cells [1] (K562, monoculture, Foxy-5 50 μM), 59.00%; with K562 cells [1] (K562, monoculture, Foxy-5 100 μM) it was 83.51%; in the test with HL60 cells (HL60, co-cultured with HS5 stromal cells, Foxy-5 50 μM), 53.47%; with HL60 cells (HL60, co-cultured with HS5 stromal cells, Foxy-5 100 μM) it was 70.68%. Also, the “cells in G0/G1 cell cycle phase (average)” value stood at 51.57% in the test with HL60 cells (HL60, monoculture, Foxy-5 50 μM) and 53.02% in the test with HL60 cells (HL60, monoculture, Foxy-5 100 μM). Besides, the “ROS production (MFI)” value is 75.03 (range 75.03-77.70) MFI in the test on KG1a cells (Foxy-5 50 μM) and 69.00 (range 68.00-72.00) MFI with KG1a cells (Foxy-5 100 μM). The “ROS production (mean fluorescence intensity)” value in the test with KG1a cells (Foxy-5 50 μM) is listed as 36.30 (range 35.80-36.80) MFI; with KG1a cells (Foxy-5 100 μM) it was 29.72 (range 28.10-31.33) MFI. Further, the “reduced cell growth compared to vehicle treated cells” value in the test on K562 cells [2] (K562, 2D culture with HS-5 stromal cells) is on record as 1.79 fold decrease; in the test with K562 cells [2] (K562, monoculture), 3.12 fold decrease. The “phosphorylation level of AKT compared to vehicle-treated cells” value in the test with PI3K and MAPK pathways is on record as “lower phosphorylation levels”. Further, the “phosphorylation level of ERK compared to vehicle-treated cells” value in the test on PI3K and MAPK pathways is recorded as “lower phosphorylation levels”. Besides, the “protein level of cyclin D1 compared to vehicle-treated cells” value in the test with PI3K and MAPK pathways is “reduced protein level”.
